Calls of active or inactive are those of the source. The calls are words filed in the database; no cut-off is given here.

The nature of data set [1]: Induction of nitric oxide release in potassium phosphate buffer at pH 7.35 at 100 uM photoirradiated with 180 mW/cm'2 light for 15 mins by LC/ESI-MS analysis in presence of Fe2+/MGD2 complex. The class given is physicochemical. Particulars: pH 7.35, 0.25 h.
Data set [2] can be described thus: Cellular uptake in human HCT116 cell cytoplasm at 100 uM by confocal fluorescence microscopy. The class given is ADME, cell-based. The following applies: hct-116, 100 µM.
A short description of data set [3]: Induction of nitric oxide release in potassium phosphate buffer at pH 7.35 at 100 uM photoirradiated with 15 mW/cm'2 light for 10 mins by spectrometric analysis in presence of Fe2+/MGD2 complex. Type of data set: physicochemical. Particulars: pH 7.35, 10 min.
A short description of data set [4]: Induction of nitric oxide release in potassium phosphate buffer at pH 7.35 at 500 uM photoirradiated with 190 mW/cm'2 light for 15 mins by LC/ESI-MS analysis in presence of Fe2+/MGD2 complex. Type of data set: physicochemical. The following applies: pH 7.35, 0.25 h.
The subject of another data set is HCT-116. As to the kind of experiment: Induction of nitric oxide release in human HCT116 cells at 25 uM incubated for 3 hrs followed by […] irradiation by DAR-4M/AM staining-based fluorescence microscopy relative to control. Type of data set: functional, cell-based.

With `CCN(CC)c1ccc2c(C)c(/C=C/c3cc(C)c([N+](=O)[O-])c(C)c3)c(=O)oc2c1`, the Activity result in data set [1] is “Not Active”.
For `Cc1cc(/C=C/c2cc(=O)oc3cc(O)c(Br)cc23)cc(C)c1[N+](=O)[O-]`, in data set [2], the Drug uptake entry was “Active”. Besides, the result in data set [3] and in data set [4] was Active. In addition, the outcome with HCT-116 was Active.

The values are drawn from ChEMBL document CHEMBL3352100, “Visible light-induced nitric oxide release from a novel nitrobenzene derivative cross-conjugated with a coumarin fluorophore” (Bioorg Med Chem Lett, 2014).
